Reference: patent US11780826B2 (Amgen Inc., priority 2017, dated 2023)

Tested on: Bovine cardiac myofibrils
Experiment: In vitro model of dose-dependent myofibril ATPase modulation (AC1.4, pyruvate kinase/lactate dehydrogenase-coupled ATPase assay at pCa25)
Assay type: biochemical
Details: concentration at which ATPase activity was 1.4-fold higher than the bottom of the dose curve, mean of a minimum of two independent tests
In short: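 Compound dilutions were premixed with myofibrils, coupling enzymes, EGTA and CaCl2, then the reaction was started with an equal volume carrying ATP (final 1 mM), NADH and PEP. ATP turnover was followed at 340 nm, and dose responses were fit to a four-parameter equation.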

SMILES | AC1.4 [µM]
CS(=O)(=O)c1cccc(C(=O)N2C[C@@H](F)C[C@@H]2C(=O)N[C@@H](c2ccc(C(F)(F)F)cc2)C2COC2)c1 [Example 546, (4S)-4-fluoro-1-(3-(methylsulfonyl)benzoyl)-N-((R)-3-oxetanyl(4-(trifluoromethyl)phenyl)methyl)-D-prolinamide] | 2.6257
CC(C)[C@@H](NC(=O)[C@H]1CCCN1C(=O)[C@H]1CCCN(S(=O)(=O)N2CC(C#N)C2)C1)c1ccc(C(F)(F)F)cc1F [Example 9, 1-(((3S)-1-((3-cyano-1-azetidinyl)sulfonyl)-3-piperidinyl)carbonyl)-N-((1R)-1-(2-fluoro-4-(trifluoromethyl)phenyl)-2-methylpropyl)-D-prolinamide] | 0.01995
Cc1cccc(CNC(=O)[C@H]2CCCN2C(=O)[C@H]2CCCN(S(=O)(=O)N3CC(C#N)C3)C2)c1F [Example 606, 1-(((3S)-1-((3-cyano-1-azetidinyl)sulfonyl)-3-piperidinyl)carbonyl)-N-(2-fluoro-3-methylbenzyl)-D-prolinamide] | 3.696
N#CC1CN(S(=O)(=O)N2CCC[C@H](C(=O)N3CCC[C@@H]3C(=O)NCc3ccccc3F)C2)C1 [Example 684, 1-(((3S)-1-((3-cyano-1-azetidinyl)sulfonyl)-3-piperidinyl)carbonyl)-N-(2-fluorobenzyl)-D-prolinamide] | 5.1985
CC[C@H](NC(=O)[C@H]1CCCN1C(=O)c1cccc(S(=O)(=O)N(C)C)c1)c1ccc(Cl)c(F)c1 [Example 629, N-((1S)-1-(4-chloro-3-fluorophenyl)propyl)-1-(3-(dimethylsulfamoyl)benzoyl)-D-prolinamide] | 4.051
N#CC1(c2cccc(C(=O)N3CCC[C@@H]3C(=O)N[C@@H](c3ccc(C(F)(F)F)cc3F)C3CC3)c2)CC1 [Example 604, 1-(3-(l-cyanocyclopropyl)benzoyl)-N-((R)-cyclopropyl(2-fluoro-4-(trifluoromethyl)phenyl)methyl)-D-prolinamide] | 3.679
CN(C)S(=O)(=O)c1cccc(C(=O)N2CCCCC2C(=O)NCc2ccc(C(F)(F)F)cc2)c1 (stereo not shown) [Example 677, 1-(3-(N,N-dimethylsulfamoyl)benzoyl)-N-(4-(trifluoromethyl)benzyl)piperidine-2-carboxamide] | 4.987
CS(=O)(=O)c1ccnc(C(=O)N2[C@@H](C(=O)N[C@@H](c3ccc(C(F)(F)F)cc3F)C3CC3)C[C@H]3C[C@H]32)c1 [Example 444, (1R,3R,5R)-N-((R)-cyclopropyl(2-fluoro-4-(trifluoromethyl)phenyl)methyl)-2-(4-(methylsulfonyl)picolinoyl)-2-azabicyclo[3.1.0]hexane-3-carboxamide] | 1.547
COc1cc(Cl)ccc1CNC(=O)[C@H]1CCCN1C(=O)[C@H]1CCCN(S(=O)(=O)N2CC(C#N)C2)C1 [Example 176, N-(4-chloro-2-methoxybenzyl)-1-(((3S)-1-((3-cyano-1-azetidinyl)sulfonyl)-3-piperidinyl)carbonyl)-D-prolinamide] | 0.3085
CC(C)[C@@H](NC(=O)[C@H]1CCCN1C(=O)c1cccc(S(=O)(=O)N(C)C)c1)c1ccc(C(F)(F)F)cc1F [Example 185, 1-(3-(dimethylsulfamoyl)benzoyl)-N-((1R)-1-(2-fluoro-4-(trifluoromethyl)phenyl)-2-methylpropyl)-D-prolinamide] | 0.3371
Cc1cc(C(=O)N2[C@@H](C(=O)N[C@@H](c3ccc(C(F)(F)F)cc3F)C3CC3)C[C@H]3C[C@H]32)c(NC2CC2)cn1 [Example 458, (1R,3R,5R)-2-((5-(cyclopropylamino)-2-methyl-4-pyridinyl)carbonyl)-N-((R)-cyclopropyl(2-fluoro-4-(trifluoromethyl)phenyl)methyl)-2-azabicyclo[3.1.0]hexane-3-carboxamide] | 1.5845
N#CC1CN(S(=O)(=O)N2CC(C(=O)N3CCC[C@@H]3C(=O)NCc3ccc(C(F)(F)F)cc3)C3CC32)C1 (stereo partly drawn) [Example 503, (2R)-1-(2-((3-cyanoazetidin-1-yl)sulfonyl)-2-azabicyclo[3.1.0]hexane-4-carbonyl)-N-(4-(trifluoromethyl)benzyl)pyrrolidine-2-carboxamide] | 2.3565
CS(=O)(=O)c1cccc(C(=O)N2C[C@@H](F)C[C@@H]2C(=O)N[C@@H](c2ccc(C(F)(F)F)cc2F)C2COC2)c1 [Example 528, (4S)-4-fluoro-N-((R)-(2-fluoro-4-(trifluoromethyl)phenyl)(3-oxetanyl)methyl)-1-(3-(methylsulfonyl)benzoyl)-D-prolinamide] | 2.4294
CS(=O)(=O)c1ccc(C(=O)N2CCC[C@@H]2C(=O)NC(c2ccc(C(F)(F)F)cc2F)C2CC2)cn1 (stereo partly drawn) [Example 569, (2R)-N-(cyclopropyl(2-fluoro-4-(trifluoromethyl)phenyl)methyl)-1-(6-(methylsulfonyl)nicotinoyl)pyrrolidine-2-carboxamide] | 3.182
Cc1cnn(C)c1C(=O)N1[C@@H](C(=O)N[C@@H](c2cc(F)c(C(F)(F)F)cc2F)C2COC2)C[C@H]2C[C@H]21 [Example 818, (1R,3R,5R)-N-((R)-(2,5-difluoro-4-(trifluoromethyl)phenyl)(oxetan-3-yl)methyl)-2-(1,4-dimethyl-1H-pyrazole-5-carbonyl)-2-azabicyclo[3.1.0]hexane-3-carboxamide] | 4.155
N#CC1CN(S(=O)(=O)c2cccc(C(=O)N3CCC[C@@H]3C(=O)NCc3ccc(C4CC4)cc3)c2)C1 [Example 283, 1-((3-((3-cyano-1-azetidinyl)sulfonyl)phenyl)carbonyl)-N-(4-cyclopropylbenzyl)-D-prolinamide] | 0.7288
O=C(NCc1ccc(C(F)(F)F)cc1)[C@H]1CCCN1C(=O)[C@H]1CCCN(S(=O)(=O)N2CC(n3ccnn3)C2)C1 [Example 203, 1-(((3S)-1-((3-(1H-l,2,3-triazol-1-yl)-1-azetidinyl)sulfonyl)-3-piperidinyl)carbonyl)-N-(4-(trifluoromethyl)benzyl)-D-prolinamide] | 0.4299

Further lines, results first:

AC1.4 [µM] | SMILES
1.66 | C[C@@H](NC(=O)[C@H]1CCCN1C(=O)c1cccc(S(=O)(=O)N2CC3(CC3)C2)c1)c1ccc(C(F)(F)F)cc1 [Example 434]
7.879 | CC(NC(=O)[C@H]1CCCN1C(=O)[C@H]1CCCN(S(=O)(=O)N2CC(C#N)C2)C1)c1cccc(F)c1F (stereo partly drawn) [Example 763, (2R)-1-((S)-1-((3-cyanoazetidin-1-yl)sulfonyl)piperidine-3-carbonyl)-N-(1-(2,3-difluorophenyl)ethyl)pyrrolidine-2-carboxamide]
7.661 | O=C(NCc1ccc(C(F)(F)F)cc1)[C@H]1CCCN1C(=O)[C@H]1CCCN(S(=O)(=O)N2CC(F)(C(F)(F)F)C2)C1 [Example 760, 1-(((3S)-1-((3-fluoro-3-(trifluoromethyl)-1-azetidinyl)sulfonyl)-3-piperidinyl)carbonyl)-N-(4-(trifluoromethyl)benzyl)-D-prolinamide]
0.6922 | CCS(=O)(=O)c1cccc(C(=O)N2[C@@H](C(=O)N[C@@H](c3ccc(C(F)(F)F)cc3)C3COC3)C[C@H]3C[C@H]32)c1 [Example 275, (1R,3R,5R)-2-(3-(ethylsulfonyl)benzoyl)-N-((R)-3-oxetanyl(4-(trifluoromethyl)phenyl)methyl)-2-azabicyclo[3.1.0]hexane-3-carboxamide]
0.4322 | C[C@@H](NC(=O)[C@H]1CCCN1C(=O)c1cccc(S(=O)(=O)N2CC(C#N)C2)c1)c1cc(F)cc(F)c1 [Example 205, 1-(3-((3-cyano-1-azetidinyl)sulfonyl)benzoyl)-N-((1R)-1-(3,5-difluorophenyl)ethyl)-D-prolinamide]
5.3575 | CC1(c2cccc(C(=O)N3CCC[C@@H]3C(=O)N[C@@H](c3ccc(C(F)(F)F)cc3F)C3CC3)c2)COC1 [Example 691, N-((R)-cyclopropyl(2-fluoro-4-(trifluoromethyl)phenyl)methyl)-1-(3-(3-methyl-3-oxetanyl)benzoyl)-D-prolinamide]
0.2892 | N#CC1CN(S(=O)(=O)N2CCC[C@H](C(=O)N3CCC[C@@H]3C(=O)N[C@H](CO)c3ccc(Cl)cc3)C2)C1 [Example 169, N-((1S)-1-(4-chlorophenyl)-2-hydroxyethyl)-1-(((3S)-1-((3-cyano-1-azetidinyl)sulfonyl)-3-piperidinyl)carbonyl)-D-prolinamide]
2.441 | N#CC1CN(S(=O)(=O)N2CCC[C@H](C(=O)N3CCC[C@@H]3C(=O)NCc3ncc(C(F)(F)F)cc3F)C2)C1 [Example 515, 1-(((3S)-1-((3-cyano-1-azetidinyl)sulfonyl)-3-piperidinyl)carbonyl)-N-((3-fluoro-5-(trifluoromethyl)-2-pyridinyl)methyl)-D-prolinamide]
0.4746 | N#CC1CN(S(=O)(=O)N2CCC[C@H](C(=O)N3C[C@H](F)C[C@@H]3C(=O)NCc3ccc(C(F)(F)F)cc3)C2)C1 [Example 216, (4R)-1-(((3S)-1-((3-cyano-1-azetidinyl)sulfonyl)-3-piperidinyl)carbonyl)-4-fluoro-N-(4-(trifluoromethyl)benzyl)-D-prolinamide]
1.0139 | COC(=O)CN(C)S(=O)(=O)c1cccc(C(=O)N2CCC[C@@H]2C(=O)NCc2ccc(C(F)(F)F)cc2)c1 [Example 346, methyl (R)-2-(N-methyl-3-(2-((4-(trifluoromethyl)benzyl)carbamoyl)pyrrolidine-1-carbonyl)phenylsulfonamido)acetate]
4.1355 | C[C@@H](NC(=O)[C@H]1CCCN1C(=O)c1cccc(S(=O)(=O)N2CC3(CC3)C2)c1)c1ccc(Cl)c(Cl)c1 [Example 635, 1-((3-(5-azaspiro[2.3]hex-5-ylsulfonyl)phenyl)carbonyl)-N-((1R)-1-(3,4-dichlorophenyl)ethyl)-D-prolinamide]
